Laboratory results taken from ChEMBL document CHEMBL1201862, “PubChem BioAssay data set” (2004).
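Assay format: 96-well plates, 48-hour exposure. GI50 is the concentration that inhibits growth by half.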 Activity calls are given as the source filed them. Cut-off read from the data, not from the text of the source: active = GI50 up to about 1.1 µM and inactive = higher.

Key:
Experiment in all cases: NCI-60 cell line screen, 48 h
MDA-MB-435 = test system: MDA-MB-435
SF-295 = test system: SF-295
CAKI-1 = test system: CAKI-1
KM12 = test system: KM12
SF-539 = test system: SF-539
A549 = test system: A549
PC-3 = test system: PC-3
HOP-92 = test system: HOP-92
MDA-N = test system: MDA-N
MCF7 = test system: MCF7
SN12C = test system: SN12C
TK-10 = test system: TK-10
T47D = test system: T47D
RXF 393 = test system: RXF 393
LOX IMVI = test system: LOX IMVI
Malme-3M = test system: Malme-3M
Hs-578T = test system: Hs-578T
NCI-H522 = test system: NCI-H522
A498 = test system: A498
M19-MEL = test system: M19-MEL

Measured: GI50

CCOC(=O)C(NC(=O)c1ccccc1)(c1ccc(S(=O)(=O)Nc2onc(C)c2C)cc1)C(F)(F)F (centres undefined)
inactive: MDA-MB-435 > 100 µM | SF-295 > 100 µM | CAKI-1 > 100 µM | KM12 > 100 µM | SF-539 > 100 µM | A549 > 100 µM | PC-3 > 100 µM | HOP-92 > 100 µM | MDA-N > 100 µM | MCF7 > 100 µM | SN12C > 100 µM | TK-10 > 100 µM | T47D > 100 µM | RXF 393 > 100 µM | LOX IMVI > 100 µM | Malme-3M > 100 µM | Hs-578T > 100 µM

COc1nc(C#CCC(C)O)nc(OC)n1 (centres undefined)
inactive: MDA-MB-435 17.9 µM | SF-295 30.6 µM | CAKI-1 17.6 µM | KM12 24.5 µM | SF-539 26 µM | A549 23.3 µM | NCI-H522 17.7 µM | PC-3 22.6 µM | A498 30.5 µM | MDA-N 30.6 µM | MCF7 13.1 µM | SN12C 19.5 µM | TK-10 24.2 µM | T47D 47.8 µM | RXF 393 7.38 µM | LOX IMVI 14.2 µM | Malme-3M 11.5 µM | Hs-578T 25.7 µM

O=C1C(Br)=C(c2ccccc2)O/C1=C/C(=O)c1ccc(Br)cc1
inactive: MDA-MB-435 42.1 µM | CAKI-1 19 µM | KM12 > 100 µM | SF-539 > 100 µM | NCI-H522 16.9 µM | PC-3 14.2 µM | HOP-92 49.1 µM | A498 > 100 µM | MDA-N 15.5 µM | MCF7 36.7 µM | SN12C 8.75 µM | TK-10 37.3 µM | T47D 32.9 µM | RXF 393 17.7 µM | Malme-3M 58.2 µM | Hs-578T 50 µM

C=CCc1c(O)c2c(c3oc(=O)cc(C)c13)CC(C)O2 (centres undefined)
inactive: SF-295 > 100 µM | CAKI-1 > 100 µM | SF-539 > 100 µM | M19-MEL 72.4 µM | A549 > 100 µM | NCI-H522 > 100 µM | SN12C > 100 µM | TK-10 > 100 µM | RXF 393 67.8 µM | LOX IMVI 46.3 µM | Malme-3M > 100 µM

O=C(O)CNC(=O)c1ccccc1O [SALICYLURIC ACID]
inactive: MDA-MB-435 > 100 µM | SF-295 > 100 µM | CAKI-1 > 100 µM | KM12 > 100 µM | SF-539 > 100 µM | A549 > 100 µM | NCI-H522 > 100 µM | PC-3 > 100 µM | HOP-92 > 100 µM | A498 > 100 µM | MDA-N > 100 µM | MCF7 > 100 µM | SN12C > 100 µM | TK-10 > 100 µM | T47D > 100 µM | RXF 393 > 100 µM | LOX IMVI > 100 µM | Malme-3M > 100 µM | Hs-578T > 100 µM

N#Cc1c(OCCF)c2ccccc2n2c1nc1ccccc12
inactive: MDA-MB-435 46.5 µM | SF-295 23.9 µM | CAKI-1 52.2 µM | KM12 > 100 µM | SF-539 16.9 µM | A549 31.6 µM | NCI-H522 19.6 µM | PC-3 59.2 µM | A498 1.94 µM | MDA-N > 100 µM | MCF7 16.6 µM | TK-10 31.1 µM | T47D > 100 µM | RXF 393 17.3 µM | LOX IMVI 31.3 µM | Hs-578T 17.3 µM

CON(C)c1nc(N(C)OC)nc(N(C)OC)n1
inactive: MDA-MB-435 > 10 µM | SF-295 > 10 µM | CAKI-1 > 10 µM | KM12 > 10 µM | SF-539 > 10 µM | A549 > 10 µM | NCI-H522 > 10 µM | PC-3 > 10 µM | A498 > 10 µM | MDA-N > 10 µM | MCF7 > 10 µM | SN12C > 10 µM | TK-10 > 10 µM | T47D > 10 µM | RXF 393 > 10 µM | LOX IMVI > 10 µM | Malme-3M > 10 µM | Hs-578T > 10 µM

Cc1cn(C2CC(N)C(C(=O)NCC(=O)O)O2)c(=O)[nH]c1=O (centres undefined)
inactive: MDA-MB-435 > 100 µM | CAKI-1 > 100 µM | KM12 > 100 µM | NCI-H522 > 100 µM | PC-3 > 100 µM | HOP-92 > 100 µM | A498 50.6 µM | MDA-N > 100 µM | MCF7 > 100 µM | SN12C > 100 µM | TK-10 > 100 µM | T47D > 100 µM | RXF 393 > 100 µM | LOX IMVI > 100 µM | Malme-3M > 100 µM | Hs-578T > 100 µM

COC1OC2COC(c3ccccc3)OC2C(OC(=S)c2ccccc2)C1O (centres undefined)
inactive: MDA-MB-435 10.9 µM | SF-295 28.8 µM | CAKI-1 41 µM | SF-539 13.2 µM | A549 13.4 µM | PC-3 4.61 µM | HOP-92 > 100 µM | A498 > 100 µM | MDA-N > 100 µM | MCF7 > 100 µM | SN12C 46.3 µM | TK-10 28.2 µM | T47D 1.91 µM | RXF 393 12 µM | LOX IMVI 7.76 µM | Malme-3M 4.45 µM | Hs-578T 27.2 µM

N#CN=C(NCCO)NCCO
inactive: SF-295 > 100 µM | CAKI-1 > 100 µM | KM12 > 100 µM | SF-539 > 100 µM | M19-MEL > 100 µM | A549 > 100 µM | NCI-H522 > 100 µM | A498 92.7 µM | SN12C > 100 µM | LOX IMVI > 100 µM | Malme-3M > 100 µM

Cc1cc(C)nc(NS(=O)(=O)c2ccc(NNC(=O)c3cccc4c(=O)c5ccccc5[nH]c34)cc2)n1
inactive: MDA-MB-435 61.8 µM | SF-295 80.5 µM | CAKI-1 > 100 µM | KM12 39.5 µM | SF-539 > 100 µM | A549 > 100 µM | NCI-H522 33.6 µM | PC-3 38.4 µM | HOP-92 11.6 µM | MDA-N 75.9 µM | MCF7 > 100 µM | SN12C 96.6 µM | TK-10 > 100 µM | T47D 26.1 µM | RXF 393 36 µM | LOX IMVI 36 µM | Malme-3M 49.9 µM | Hs-578T 61.7 µM

C=C1[C@H](OC(C)=O)[C@H]2[C@@H](OC(C)=O)[C@@H](C)C[C@]2(C)C(=O)[C@H](C)/C=C/C(C)(C)C(=O)[C@H](OCC(C)C)[C@H]1OC(C)=O
inactive: MDA-MB-435 20.7 µM | SF-295 22.9 µM | CAKI-1 24.7 µM | KM12 > 25 µM | SF-539 19.6 µM | NCI-H522 > 25 µM | PC-3 > 25 µM | HOP-92 > 25 µM | A498 > 25 µM | MDA-N 14.4 µM | MCF7 > 25 µM | SN12C > 25 µM | TK-10 > 25 µM | T47D > 25 µM | RXF 393 > 25 µM | LOX IMVI > 25 µM | Hs-578T > 25 µM
